From patent US7378111B2, “Regulation of GSK-3α activity for the treatment or prevention of Alzheimer's disease” (The Trustees of the University of Pennsylvania, priority 2002, dated 2008)
Numbered stars: 1 amine (or outer) side, 2 acyl side, 3 side chain; on linkers, the order of the positions; unused ones are H or OH. Square brackets hold non-standard residues; d marks the D form. Peptide text beside a SMILES is read from it. * marks the point of attachment. X1 = CC(N[*:1])C(=O)C(F)(F)C(=O)[*:2]; Boc = CC(C)(C)OC(=O)*

Legend:
GSK-3α = test: siRNA knock-down, GSK-3α protein by western blot in CHO-APP695 cells; format: cell-based, Chinese hamster
Experimental: (§1) CHO-APP695 cells were transfected with short interfering RNAs (siRNAs) directed against GSK-3α and GSK-3β as follows. RNA oligonucleotides were synthesized by Dharmacon, Inc. (Lafayette, Colo.) Sequences used were:
(§2) The dsRNA was produced using conditions described in Elbashir et al., 2001, supra. The siRNA was transfected into the CHO-APP695 cells plated in 6-well dishes using GenePORTER transfection reagent. The siRNA (25 nM) was co-transfected with 2 μg plasmid DNA. The siRNA against pGL3-luciferase (Pp-Luc) represents control transfection. […] Following transfection, the cells were cultured and harvested 48 hours later. GSK-3α and GSK-3β protein levels were examined using an antibody that recognized both GSK-3 isoforms (Calbiochem), and western blotted as above.

[1] = tested on: Aβ40 and Aβ42 production in CHO-APP695 cells; test: Secreted Aβ40 and Aβ42 from CHO-APP695 cells, sandwich ELISA normalized to intracellular full-length APP; format: cell-based, Chinese hamster
Experimental: To investigate the role of GSK-3 in the production of peptides Aβ40 and Aβ42, Chinese hamster ovary (CHO) cells stably expressing APP (CHO-APP695) were treated with lithium chloride (LiCl), which is a direct inhibitor of GSK-3α and β (Phiel et al., 2001). CHO695 cells (available commercially, e.g., American Type Culture Collection (ATCC), Manassas, Va.) were maintained in culture in MEMα+5% fetal bovine serum (FBS) (e.g., BioWhittaker, Walkersville, Md.) with added penicillin/streptomycin and glutamine. Stocks of lithium chloride were prepared in sterile water. To quantify the Aβ40 and Aβ42 secretion following treatment with LiCl, the CHO-APP695 cells were plated in 6-well dishes at a density of 5×10^5 cells per well. LiCl was added to the cells in fresh medium, and media and cells were collected 24 hours later. Aβ determinations from the media were made by sandwich ELISA in femtomoles using the method of Suzuki et al., Science 264:1336-1340 (1994).
For comparison purposes, the results were normalized to levels of intracellular full-length APP. APP levels were quantified by SDS-PAGE followed by western immunoblotting with the amino-terminal APP antibody Karen (Turner et al., J. Biol. Chem. 271:8966-8970 (1996)), and visualized using ^125I-labelled secondary antibodies by Phosphorlmager analysis and ImageQuant software (Amersham Biosciences Corp, Piscataway, N.J.).
Stocks of kenpaullone (Calbiochem, La Jolla, Calif.) were prepared in DMSO. Secreted labeled Aβ secreted from CHO-APP695 cells was obtained as described in the preceding examples. Drugs were added to fresh medium, and medium and cells were collected, as described above, 24 hours later. Immunoprecipitates from the medium were SDS-PAGE separated and Phosphorlmager visualized.
Stocks of roscovitine (Calbiochem) were prepared in DMSO.

[2] = tested on: γ-secretase cleavage of APP in CHO-APP695 cells; test: 35S-methionine labeling, immunoprecipitation and SDS-PAGE of secreted Aβ, APP holoprotein and APP C-terminal fragments; format: cell-based, Chinese hamster; settings: 5 mM LiCl or 100 μM DFK-167 for 24 hours
Experimental: To visualize the APP fragments, CHO695 cells plated on 6-well dishes were methionine-deprived for 30 minutes by incubation in methionine-free DMEM (Life Technologies, Inc., Grand Island, N.Y.) before adding 500 μCi ^35S-methionine (Perkin Elmer Life Sciences, Inc., Boston Mass.) per ml of DMEM with 5% dialyzed FBS (Invitrogen) and mg/ml L-proline for 2.5 hours. Medium was collected and cells (2 wells/sample) were rinsed twice with PBS (phosphate buffered saline), then scraped into RIPA buffer (a standard immunoprecipitation buffer, see, Harlow and Lane (eds.), In Antibodies: a laboratory manual, Cold Spring Harbor Laboratory Press, NY (1988)). Lysates were sonicated and centrifuged at 100,000×g for 20 minutes. Using protein A/G agarose beads (Santa Cruz Biotechnologies, Santa Cruz, Calif.), media was immunoprecipitated with the antibody BAN-50 (Suzuki et al., 1994) that recognizes Aβ amino acids 1-10, and cell lysates were immunoprecipitated with antibody 2493 (Lee et al., J. Biol. Chem. 278:[…] (2003)), which is a rabbit polyclonal antibody that recognizes the C-terminus of APP. Proteins were resolved by electrophoresis on 10/16% step gradient Tris-tricine polyacrylamide gels. Gels were fixed in 50% methanol+5% glycerol, dried, and exposed to a Phosphorlmager screen. […]

GSK-3 [3] = test: β-catenin protein accumulation by western blot in CHO-APP695 cells; format: cell-based, Chinese hamster; settings: kenpaullone 0.5, 2.0, 5.0 μM; LiCl 0.5, 2.0, 5.0 mM; FIG. 2b
Experimental: This was confirmed by western blot, in CHO-APP695 cells treated with kenpaullone (tested at concentrations of 0.5 μM, 2.0 μM and 5.0 μM, respectively) or lithium (0.5 mM, 2.0 mM and 5.0 mM LiCl) as shown in FIG. 2b. Roscovitine was added as a control (tested at concentrations of 0.5 μM, 2.0 μM and 5.0 μM, respectively) in FIG. 2b, as had been in the study summarized in FIG. 2a. A western blot for actin is was used as a loading control (see FIG. 2b).

GSK-3 [4] = test: β-catenin/Tcf-dependent luciferase reporter (OT-Luc / Lef-OT) in CHO-APP695 cells; format: cell-based, Chinese hamster; design: dose or concentration left out as unconfirmed; settings: FIG. 2c
Experimental: CHO-APP695 cells were transfected with a β-catenin-responsive reporter construct, OT-luciferase (OT-Luc) (shown in FIG. 2c as light bars), or a mutated reporter, OF-luciferase (OF-Luc) (shown in FIG. 2c as dark bars). OT-luciferase was provided by K. Kinzler and B Vogelstein.
After transfection, cells were treated with lithium (at concentrations of 0.5 mM, 2.0 mM and 5 mM LiCl, respectively), kenpaullone (at concentrations of […]) or roscovitine (at concentrations of […]) for 24 hours. Cells were harvested and luciferase assays performed.

[5] = tested on: cyclin-dependent kinases (cdks); settings: in vitro; cited from earlier work
[6] = tested on: Aβ40 and Aβ42 production in CHO-APP695 cells; test: Aβ levels secreted from siRNA transfected CHO-APP695 cells; format: cell-based, Chinese hamster; settings: siRNA 25 nM, 48 hours
Experimental: as §2
As graphically presented in FIG. 3b, Aβ levels (Aβ40 shown in light bars; […] shown in dark bars) secreted from siRNA and transfected cells in a representative experiment, were assessed as in FIG. 1. Error bars represent standard deviation. The experiment was repeated six times with similar results. As a result, the selective reduction of GSK-3 a protein decreased Aβ40 and Aβ42 levels by 45% and 43%, respectively (FIG. 3b). Asterisks indicate a significant difference from control, as determined by one-way ANOVA (p<0.05).

GSK-3β = test: siRNA knock-down, GSK-3β protein by western blot in CHO-APP695 cells; format: cell-based, Chinese hamster; settings: siRNA 25 nM, harvested 48 hours after transfection
Experimental: as §1, §2

With “control siRNA: siRNA against pGL3-luciferase (Pp-Luc), SEQ ID NO:1 and 2, control transfection (chain 1 CUUACGCUGAGUACUUCGA; chain 2 UCGAAGUACUCAGCGUAAG; listed as RNA, chemistry not fully specified)” the GSK-3 expression (GSK-3α; control siRNA, both GSK-3 isoforms, FIG. 3a) was “no effect”.
In the case of `[Cl-].[Na+]` [NaCl, sodium chloride], the “effect on APP processing” value ([1]; 24 hours, FIG. 1a) is reported as “no effect”.
For `CCC(C)C(NC(=O)C(NC(=O)OC(C)(C)C)C(C)C)C(=O)NC(C)C(=O)C(F)(F)C(=O)NC(C(=O)NC(C(=O)OC)C(C)CC)C(C)C` (stereo not drawn) [DFK-167] (Boc-VI[X1]VI-OMe; configuration not given here), the “steady-state levels of secreted Aβ peptides” value ([2]; FIG. 1b) was “dramatically reduce” and the “accumulation of APP C-terminal fragments (CTFs)” value ([2]; FIG. 1c) was “accumulation of APP CTFs”.
In the case of `O=C1Cc2c([nH]c3ccc(Br)cc23)-c2ccccc2N1` [kenpaullone], the “reduction of Aβ40 and Aβ42 secretion” value ([1]; 2.0 μM, 24 hours) is reported as 50%, the “reduction of Aβ40 and Aβ42 secretion” value ([1]; 5.0 μM, 24 hours) is reported as “greater than 90%” and the “accumulation of β-catenin protein (GSK-3 inhibition in cells)” value (GSK-3 [3]) is reported as “accumulation of β-catenin protein”. For the same molecule, the “activation of β-catenin/Tcf-dependent reporter Lef-OT” value (GSK-3 [4]) was “activation” and the “concentration needed for cdk inhibition relative to GSK-3 inhibition” value [5] was “at least 20 fold”.
In the case of `CC[C@H](CO)Nc1nc(NCc2ccccc2)c2ncn(C(C)C)c2n1` [roscovitine], the “effect on Aβ40 and Aβ42” value ([1]; 2.0 μM and 5.0 μM, FIG. 2a) is reported as “no effect”.
With “GSK-3α siRNA: dsRNA of SEQ ID NO:5 (sense) and SEQ ID NO:6 (antisense) directed against GSK-3α (sense UUCUACUCCAGUGGUGAGA; antisense UCUCACCACUGGAGUAGAA; listed as RNA, chemistry not fully specified)” the GSK-3α protein level (GSK-3α; siRNA 25 nM, harvested 48 hours after transfection) was “selectively reduces”, the “decrease of secreted Aβ40 level” value ([6]; FIG. 3b) was 45% and the “decrease of secreted Aβ42 level” value ([6]; FIG. 3b) was 43%.
With “GSK-3β directed siRNA: dsRNA of SEQ ID NO:3 (sense) and SEQ ID NO:4 (antisense) directed against GSK-3β (sense AUCUUUGGAGCCACUGAUU; antisense AAUCAGUGGCUCCAAAGAU; listed as RNA, chemistry not fully specified)” the GSK-3β protein level (GSK-3β) was “selectively reduces” and the “levels of secreted Aβ40 and Aβ42” value [6] was “modest increase”.
